Results as given in US11058756B2, “Compositions and methods of treating autoimmune disease by reducing enterococcus” (YALE UNIVERSITY, priority 2017, dated 2021).

Tests used:
Type in all cases: in vivo, mouse
[1] = tested on: E. gallinarum; assay: Assessment of bacterial translocation and tissue burden (anaerobic tissue cultures, CFU); settings: FIG. 1K-1N
Text: Mice were cohoused for 3 to 4 weeks before antibiotic treatment to allow for equilibration of the microbiota. Single antibiotic or broad-spectrum antibiotic administration consisted of metronidazole (1 g/liter; Fisher Scientific), neomycin (1 g/liter; Fisher Scientific), ampicillin (1 g/liter; Sigma) and vancomycin (0.5 g/liter; Acros Organics) in the drinking water for up to 22 weeks or a targeted regiment for 2 weeks and then replaced with regular water for the duration of the experiment. For broad-spectrum antibiotic experiments (vancomycin, ampicillin, metronidazole, and neomycin combined), sweetener (Equal, 4 g/L) was added to both the antibiotics and control water due to the metallic taste of metronidazole. […] E. gallinarum was grown at 37° C. in Gifu Anaerobic Broth (HIMEDIA Laboratories) to early stationary phase under anaerobic conditions (82% N2, 15% CO2, 3% H2 by volume) in an anaerobic chamber and diluted in PBS to 10^7 CFUs.
14-, 16- and 18-week-old mice underwent sterile laparotomy and nose, mouth, small intestine (luminal and adherent fractions), mesenteric veins, mesenteric lymph nodes (MLN), liver and spleen were aseptically collected in BBL Mycoflask Thioglycollate (Fluid) Prepared Media (BD Diagnostic Systems) and incubated for 72 hours in anaerobic conditions at 37° C. Gifu Media Agar plates were streaked with the content from the BBL Mycoflask Thioglycollate and incubated for 48 hours in an anaerobic chamber at 37° C. Colony Formation Units (CFU) were counted and concentration determined per milligram of tissue. Single colonies were grown in Gifu anaerobic media for 48 hours in an anaerobic chamber at 37° C. and aliquots from each sample were collected and centrifuge for 10 minutes at 10000×g. DNA was extracted from bacterial pellets using DNeasy Blood and Tissue kit (Qiagen) and submitted to PCR amplification of the 16S region and Sanger sequencing. In addition, purified DNA was used for eubacterial, Enterococcus genus and Enterococcus gallinarum PCR assays.

[2] = tested on: (NZWxBXSB)F1 mice; assay: Oral antibiotics in drinking water: mortality, clinical outcome, proteinuria and organ histology in the autoimmune hybrid model
Text: 6-week-old male (NZWxBXSB)F1 mice and C57BL/6J mice were used in this study except if noted otherwise. (NZWxBXSB)F1 were bred by mating NZW/LaJ females with BXSB/MpJ males obtained from Jackson Laboratory (Bar Harbor, Me., USA). Parental littermates of (NZWxBXSB)F1 were randomly mixed with littermates from other parental cages 21 days after birth to equilibrate the microbiomes from different cages and parental origin. All mice were maintained in a specific-pathogen-free environment. (NZWxBXSB)F1 mice were provided with water and a standard laboratory diet ad libitum (2018 Harlan Teklad, South Easton, Mass., USA). They were supplied with hardwood chips as bedding and were housed in a temperature-controlled, air-conditioned room on a 12-hr light-dark cycle. Germ-free (GF) C57BL/6 mice were kept under sterile conditions in CBC's (Class Biologically Clean, Madison, Wis., USA) Quad flexible film isolators (Softwall), exposed to a 12-hr light/dark cycle and provided standard, autoclaved tap water and mouse chow (2018S Harlan Teklad, South Easton, Mass., USA) ad libitum. To exclude a Th17 bias, a PCR for segmented filamentous bacteria (SFB) was performed on fecal DNA from all mice involving Th17 studies. Fecal SFB detection at 6-8 weeks of age that correlates with ileal SFB colonization was performed as described (Barman et al., 2008, Infect Immun, 76, 907-915; Kriegel et al., 2011, Proc Natl Acad Sci USA, 108, 11548-11553). All Th17 data was derived from SFB-negative animals.
(§1) Mice were cohoused for 3 to 4 weeks before antibiotic treatment to allow for equilibration of the microbiota. Single antibiotic or broad-spectrum antibiotic administration consisted of metronidazole (1 g/liter; Fisher Scientific), neomycin (1 g/liter; Fisher Scientific), ampicillin (1 g/liter; Sigma) and vancomycin (0.5 g/liter; Acros Organics) in the drinking water for up to 22 weeks or a targeted regiment for 2 weeks and then replaced with regular water for the duration of the experiment. For broad-spectrum antibiotic experiments (vancomycin, ampicillin, metronidazole, and neomycin combined), sweetener (Equal, 4 g/L) was added to both the antibiotics and control water due to the metallic taste of metronidazole. Twenty-four hours after cessation of antibiotic water, mice were administered 1×10^6 CFUs of vancomycin-resistant E. gallinarum via oral gavage, isolated from liver tissue of a vancomycin-treated mouse that continued to show signs of autoimmune disease (high-level resistance was confirmed by vanC gene PCR). E. gallinarum was grown at 37° C. in Gifu Anaerobic Broth (HIMEDIA Laboratories) to early stationary phase under anaerobic conditions (82% N2, 15% CO2, 3% H2 by volume) in an anaerobic chamber and diluted in PBS to 10^7 CFUs.
Samples were obtained at autopsy and fixed in 10% neutral formalin, and histological sections were stained with hematoxylin and eosin (H&E) and scored in a blinded fashion. Glomerulonephritis was scored on a scale of 0-4 based on the intensity and extent of histopathological changes (Klopfleisch, 2013, BMC Vet Res, 9, 123). A grade of 0 was given to kidneys without glomerular lesions; grade 1 consisted of minimal thickening of the mesangium; grade 2 contained noticeable increases in both mesangial and glomerular cellularity; grade 3 was characterized by the preceding conditions with superimposed inflammatory exudates and capsular adhesions; and grade 4 consisted of obliterated glomerular architecture in greater than 70% of glomeruli. […]

[3] = tested on: (NZWxBXSB)F1 mice; assay: Serum ELISAs for anti-dsDNA, anti-RNA, anti-β2GPI IgG, ERV gp70 protein and anti-ERV gp70 immune complexes
Text: as §1
Serum antibodies specific for dsDNA and b2GPI were determined using standardized ELISAs (anti-dsDNA antibody, Abcam; and, Mouse/Rat Apolipoprotein H Antibody, R&D Systems; respectively). Anti-RNA was determined by ELISA using defined positive controls (Human/Mouse RNA Polymerase II Antibody, R&D systems). Anti-ERV gp70 ICs and ERV gp70 protein were determined by OD450 signal comparisons (Evans et al., 1990, J Virol, 64, 6176-6183). For anti-dsDNA ELISAs, DNA-BIND™ (Corning) plates were coated with 100 μg/ml salmon sperm DNA (Fisher Scientific) and blocked in 0.1M PBS, 3.0% BSA, 5.0% FBS. The serum was diluted 1:1000 for the assay and incubated for 1 hour at 37° C. Wells were washed and incubated for 1 hour at 37° C. with rabbit anti-mouse IgG (Fisher Scientific) conjugated to HRP and developed with TMB substrate solution. 2M sulfuric acid (Sigma) solution was used to stop development. The concentration of anti-dsDNA was determined by reading the absorbance at 450 nm/570 nm reference.
For anti-RNA ELISAs, DNA-BIND™ (Corning) plates were coated with […] yeast RNA (Ambion) and blocked in 0.1M PBS, 0.05% Tween-20, 5.0% FBS. The serum was diluted 1:1000 for the assay and incubated for 1 hour at 37° C. Wells were washed and incubated for 1 hour at 37° C. with rabbit anti-mouse IgG (Fisher Scientific) conjugated to HRP and developed with TMB substrate solution. 2M sulfuric acid (Sigma) solution was used to stop development. The concentration of anti-RNA IgG was determined by reading the absorbance at 450 nm/570 nm reference.
For anti-b2GPI ELISAs, Corning® 96-well EIA/RIA easy Wash™ clear flat-bottom polystyrene high-bind microplates were coated with […] recombinant b2GPI/ApoH (R&D Systems) and blocked in Pierce Protein-Free (PBS) Blocking Buffer (Thermo Scientific). The serum was diluted 1:100 for the assay and incubated at room temperature for 2 hours on a shaker. Wells were washed and incubated while shaking for 30 minutes at room temperature with goat anti-mouse IgG (Fisher Scientific) conjugated to HRP and developed with TMB substrate solution. 2M sulfuric acid (Sigma) solution was used to stop development. The concentration of anti-b2GPI was determined by reading the absorbance at 450 nm/650 nm reference. […]

CN[C@H](CC(C)C)C(=O)N[C@H]1C(=O)N[C@@H](CC(N)=O)C(=O)N[C@H]2C(=O)N[C@H]3C(=O)N[C@H](C(=O)N[C@H](C(=O)O)c4cc(O)cc(O)c4-c4cc3ccc4O)[C@H](O)c3ccc(c(Cl)c3)Oc3cc2cc(c3O[C@@H]2O[C@H](CO)[C@@H](O)[C@H](O)[C@H]2O[C@H]2C[C@](C)(N)[C@H](O)[C@H](C)O2)Oc2ccc(cc2Cl)[C@H]1O [vancomycin]
Translocation (bacterial growth in mesenteric veins, MLN, liver, spleen) ([1]; (NZWxBXSB)F1 mice, antibiotics in drinking water, 16-18 weeks of age): reduced
suppression of growth of E. gallinarum in tissues, VANC compared to NEO-treated animals ([1]; mesenteric veins, MLN, liver, spleen, P=0.0337 and P<0.005): significantly higher
Mortality ([2]; single antibiotic in drinking water from 6 weeks of age, followed for 30 weeks or until death, FIG. 1A): prevented
autoimmune manifestations (proteinuria, organ histology scores) ([2]; single antibiotic in drinking water, FIG. 1D-1I): prevented
lupus-related autoantibodies (serum anti-dsDNA and anti-RNA IgG) ([3]; single antibiotic in drinking water, 16 weeks of age, FIG. 1B-1C): prevented
anti-β2GPI ([3]; vancomycin 0.5 g/L in drinking water from 6 weeks of age, FIG. 7): suppressed
serum ERV gp70 ([3]; vancomycin 0.5 g/L in drinking water from 6 weeks of age, FIG. 7K): suppressed
anti-ERV gp70 immune complexes (ICs) ([3]; vancomycin 0.5 g/L in drinking water from 6 weeks of age, FIG. 7L): suppressed
